Tests used:
Rheb = Rheb (Homo sapiens (Human), UniProt Q15382); test: Affinity Selection Mass Spectrometry (ASMS); assay type: binding; settings: affinity (R3/R0) in Affinity Selection Mass Spectrometry assay
In short: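 Human Rheb (60 μM) with GDP (180 μM) and each compound at 2 μM, protein-plus versus protein-minus, incubated 30 min at room temperature, then washed by 10 kDa ultrafiltration. Retained ligand was released with MeCN and detected by UPLC-Q-TOF MS.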

[1] = target: HA-GST-Rheb (GTP-γ-S loaded) activating mTORC1 (Homo sapiens (Human), UniProt Q15382); test: Rheb-dependent in vitro kinase assay (Rheb-IVK; LanthaScreen or Western readout); assay type: biochemical; settings: Rheb-dependent in vitro kinase assay; read-out: IVK IC50
Chain of HA-GST-Rheb (GTP-γ-S loaded) activating mTORC1 (Q15382 1-181): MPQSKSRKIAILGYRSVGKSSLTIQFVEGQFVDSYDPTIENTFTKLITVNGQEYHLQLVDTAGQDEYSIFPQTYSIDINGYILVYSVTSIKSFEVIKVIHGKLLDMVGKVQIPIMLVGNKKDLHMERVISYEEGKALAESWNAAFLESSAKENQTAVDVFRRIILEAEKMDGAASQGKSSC

Chain of Rheb (Q15382 1-169 limits assumed): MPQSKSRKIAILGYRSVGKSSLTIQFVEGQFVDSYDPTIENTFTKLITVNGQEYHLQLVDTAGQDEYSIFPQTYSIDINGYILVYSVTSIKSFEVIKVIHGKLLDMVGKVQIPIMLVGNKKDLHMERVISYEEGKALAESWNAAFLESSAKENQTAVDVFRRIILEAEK

Row | SMILES | ASMS (R3/R0) (Rheb) | IC50 [1] [µM]
1 | OCc1cc2c(Br)cc(OCc3ccccc3)cc2[nH]1 [I-241, (6-(Benzyloxy)-4-bromo-1H-indol-2-yl)methanol] | B (an affinity (R3/R0) between 100% and 20%) | 10 to 100
2 | c1ccc(Oc2cccc3[nH]ccc23)cc1 [I-296, 4-phenoxy-1H-indole] | C (an affinity (R3/R0)<20%) | 100 to 300
3 | O=C(NO)c1cc2c(Sc3ccc(Cl)cc3)cc(Cl)cc2[nH]1 [I-177, 6-chloro-4-(4-chlorophenylthio)-N-hydroxy-1H-indole-2-carboxamide] | A (an affinity (R3/R0)>100%) | 10 to 100
4 | Cc1nc2c(OCc3ccc(Cl)cc3)c(Cl)c(Cl)cc2[nH]1 [I-340] | B (an affinity (R3/R0) between 100% and 20%) | > 100
5 | O=C(NCCN1CCCC1)c1cc2c(Sc3ccc(Cl)cc3)cc(Cl)cc2[nH]1 [I-148, 6-chloro-4-(4-chlorophenylthio)-N-(2-(pyrrolidin-1-yl)ethyl)-1H-indole-2-carboxamide] | B (an affinity (R3/R0) between 100% and 20%) | 10 to 100
6 | OCc1cc2c(Oc3cc(Cl)ccc3Cl)cc(Cl)cc2[nH]1 [I-171, (6-Chloro-4-(2,5-dichlorophenoxy)-1H-indol-2-yl)methanol] | B (an affinity (R3/R0) between 100% and 20%) | 10 to 100
7 | CN(C)C(=O)c1ccc(Cn2c(C(=O)O)cc3c(Cl)nc(Sc4ccc(Cl)c(Cl)c4)cc32)cc1 [I-4, 4-chloro-6-(3,4-dichlorophenylthio)-1-(4-(dimethylcarbamoyl)benzyl)-1H-pyrrolo[3,2-c]pyridine-2-carboxylic acid] | B (an affinity (R3/R0) between 100% and 20%) | 10 to 100
8 | Clc1c(Br)cc2nc(-c3ccncc3)[nH]c2c1Cl [I-357] | A (an affinity (R3/R0)>100%) | > 100
9 | O=C(O)c1cc2c(Br)cc(Oc3ccccc3)cc2n1Cc1ccc(C(=O)N2CCNCC2)cc1 [I-61] | C (an affinity (R3/R0)<20%) | > 100
10 | OC1CC(COc2c(Cl)c(Cl)cc3c2nc2n3COC2)CC1O (stereo not shown) [I-373, 4-((6,7-dichloro-1,3-dihydrobenzo[d]oxazolo[3,4-a]imidazol-5-yloxy)methyl)cyclopentane-1,2-diol] | C (an affinity (R3/R0)<20%) | 10 to 100
11 | CN(C)CCNC(=O)c1cc2c(Sc3ccc(Cl)cc3Cl)cc(Cl)cc2[nH]1 [I-115, 6-chloro-4-(2,4-dichlorophenylthio)-N-(2-(dimethylamino)ethyl)-1H-indole-2-carboxamide] | B (an affinity (R3/R0) between 100% and 20%) | 10 to 100
12 | OCc1cc2c(Br)cc(SCc3ccc(Cl)cc3)cc2[nH]1 [I-145, (4-bromo-6-(4-chlorobenzylthio)-1H-indol-2-yl)methanol] | B (an affinity (R3/R0) between 100% and 20%) | 10 to 100
13 | CN(C)C(=O)c1ccc(Cn2c(C(=O)O)cc3c(C4CC4)cc(Sc4ccc(Cl)c(Cl)c4)cc32)cc1 [I-10, 4-cyclopropyl-6-(3,4-dichlorophenylthio)-1-(4-(dimethylcarbamoyl)benzyl)-1H-indole-2-carboxylic acid] | A (an affinity (R3/R0)>100%) | < 10
14 | O=C1CCc2ccc(Oc3cc(Cl)cc4[nH]c(CO)cc34)cc2N1 [I-59] | C (an affinity (R3/R0)<20%) | > 100
15 | O=C(O)c1cc2c(Sc3ccc(Cl)cc3)cc(Cl)c(Cl)c2[nH]1 [I-73, 6,7-dichloro-4-(4-chlorophenylthio)-1H-indole-2-carboxylic acid] | A (an affinity (R3/R0)>100%) | < 10
16 | OCc1nc2cc(OCc3ccccc3)c(Cl)cc2[nH]1 [I-492] | C (an affinity (R3/R0)<20%) | > 100
17 | O=C(Nc1ccc(-c2cnco2)cc1)c1cc2c(Sc3ccc(Cl)cc3)cc(Cl)cc2[nH]1 [I-128, 6-chloro-4-(4-chlorophenylthio)-N-(4-(oxazol-5-yl)phenyl)-1H-indole-2-carboxamide] | A (an affinity (R3/R0)>100%) | < 10
18 | CN(C)C(=O)c1ccc(Cn2c(C(=O)O)cc3c(Br)cc(SCC4CCCCC4)cc32)cc1 [I-24, 4-bromo-6-(cyclohexylmethylthio)-1-(4-(dimethylcarbamoyl)benzyl)-1H-indole-2-carboxylic acid] | B (an affinity (R3/R0) between 100% and 20%) | < 10
19 | CC(C)(C)OC(=O)c1ccc(Cn2ccc3c(Br)cc(Oc4ccccc4)cc32)cc1 [I-163] | C (an affinity (R3/R0)<20%) | > 100
20 | CC(O)c1cc2c(Br)cc(Oc3ccccc3)cc2[nH]1 (stereo not shown) [I-218, 1-(4-bromo-6-phenoxy-1H-indol-2-yl)ethanol] | B (an affinity (R3/R0) between 100% and 20%) | 10 to 100
21 | OCc1cc2c(OCc3cccc(Cl)c3)cc(Cl)cc2[nH]1 [I-176, (6-chloro-4-(3-chlorobenzyloxy)-1H-indol-2-yl)methanol] | B (an affinity (R3/R0) between 100% and 20%) | 10 to 100

Row | SMILES | ASMS (R3/R0) (Rheb) | IC50 [1] [µM]
22 | OCCc1cc2c(Oc3ccccc3)c(Cl)ccc2[nH]1 [I-261, 2-(5-chloro-4-phenoxy-1H-indol-2-yl)ethanol] | C (an affinity (R3/R0)<20%) | 10 to 100
23 | NC(=O)c1cc2c(Oc3ccccc3)cc(Cl)cc2[nH]1 [I-169, 6-chloro-4-phenoxy-1H-indole-2-carboxamide] | B (an affinity (R3/R0) between 100% and 20%) | 10 to 100
24 | Clc1ccccc1Sc1cccc2[nH]ccc12 [I-244, 4-(2-chlorophenylthio)-1H-indole] | B (an affinity (R3/R0) between 100% and 20%) | 10 to 100
25 | NCc1cc2c(Oc3ccccc3)cc(Cl)cc2[nH]1 [I-170, (6-chloro-4-phenoxy-1H-indol-2-yl)methanamine] | B (an affinity (R3/R0) between 100% and 20%) | 10 to 100
26 | O=C(O)Cn1c(-c2c[nH]c3ncccc23)nc2cc(Cl)c(Cl)cc21 [I-334, 2-(5,6-dichloro-2-(1H-pyrrolo[2,3-b]pyridin-3-yl)-1H-benzo[d]imidazol-1-yl)acetic acid] | B (an affinity (R3/R0) between 100% and 20%) | 10 to 100
27 | OCc1nc2cc(OCc3ccc(OC(F)(F)F)cc3)c(Cl)c(Cl)c2[nH]1 [I-352, (6,7-dichloro-5-(4-(trifluoromethoxy)benzyloxy)-1H-benzo[d]imidazol-2-yl)methanol] | A (an affinity (R3/R0)>100%) | > 3
28 | Clc1ccc(Sc2cc(Cl)cc3[nH]ccc23)cc1 [I-180, 6-chloro-4-(4-chlorophenylthio)-1H-indole] | B (an affinity (R3/R0) between 100% and 20%) | 10 to 100
29 | OCc1nc2c(OC[C@H]3CCCC[C@@H]3O)c(Cl)c(Cl)cc2[nH]1 [I-439, 2-((5,6-dichloro-2-(hydroxymethyl)-1H-benzo[d]imidazol-4-yloxy)methyl)cyclohexanol] | C (an affinity (R3/R0)<20%) | 10 to 100
30 | Brc1cc(Oc2ccccc2)cc2[nH]ccc12 [I-239, 4-bromo-6-phenoxy-1H-indole] | B (an affinity (R3/R0) between 100% and 20%) | 10 to 100
31 | CC(C)(C)OC(=O)c1ccc(Cn2c(-c3ccncc3)nc3cc(Cl)c(Cl)cc32)cc1 [I-374] | C (an affinity (R3/R0)<20%) | > 100
32 | CN1CCC(N(C)C(=O)c2ccc(Cn3c(C(=O)O)cc4c(Br)cc(Oc5ccccc5)cc43)cc2)C1 (stereo not shown) [I-46] | C (an affinity (R3/R0)<20%) | > 3
33 | CC(C)(C)OC(=O)c1ccc(Cn2c(C(=O)O)cc3c(Br)cc(Oc4ccccc4)cc32)cc1 [I-167, 4-bromo-1-(4-(tert-butoxycarbonyl)benzyl)-6-phenoxy-1H-indole-2-carboxylic acid] | B (an affinity (R3/R0) between 100% and 20%) | < 10
34 | Clc1cc2nc(-c3ccc(-c4nn[nH]n4)cc3)[nH]c2cc1Cl [I-344] | A (an affinity (R3/R0)>100%) | > 100
35 | O=C(O)c1cc2c(Sc3cccc4cccnc34)cc(Cl)cc2[nH]1 [I-87, 6-chloro-4-(quinolin-8-ylthio)-1H-indole-2-carboxylic acid] | B (an affinity (R3/R0) between 100% and 20%) | 10 to 100
36 | OCc1cc2c(Oc3ccc(Cl)cc3)cccc2[nH]1 [I-263, (4-(4-chlorophenoxy)-1H-indol-2-yl)methanol] | C (an affinity (R3/R0)<20%) | 10 to 100
37 | OCc1cc2c(Br)cc(Oc3ccccc3)cc2[nH]1 [I-290, (4-Bromo-6-phenoxy-1H-indol-2-yl)methanol] | B (an affinity (R3/R0) between 100% and 20%) | 10 to 100
38 | O=C(Nc1ccc(N2CCN(Cc3ccccc3)CC2)c(F)c1)c1cc2c(Sc3ccc(Cl)cc3Cl)cc(Cl)cc2[nH]1 [I-91, N-(4-(4-benzylpiperazin-1-yl)-3-fluorophenyl)-6-chloro-4-(2,4-dichlorophenylthio)-1H-indole-2-carboxamide] | B (an affinity (R3/R0) between 100% and 20%) | 10 to 100
39 | OCc1nc2c(OCC3CC=CC3)c(Cl)c(Cl)cc2[nH]1 [I-377] | B (an affinity (R3/R0) between 100% and 20%) | > 100
40 | O=C(O)c1ccc(Cn2c(C(=O)O)cc3c(Br)cc(Sc4ccc(Cl)c(Cl)c4)cc32)cc1 [I-42, 4-bromo-1-(4-carboxybenzyl)-6-(3,4-dichlorophenylthio)-1H-indole-2-carboxylic acid] | B (an affinity (R3/R0) between 100% and 20%) | < 10
41 | O=C(Nc1ncc[nH]1)c1cc2c(Sc3ccc(Cl)cc3)cc(Cl)cc2[nH]1 [I-63] | A (an affinity (R3/R0)>100%) | > 100
